Tests used:
[1] = tested on: wt-REC-1 mantle cell lymphoma cells; test: Cell proliferation assay wt-REC-1 (ATPlite, 72 hours); assay type: cell-based; details: 72 h; read-out: IC50 wt-REC-1
Procedure: Results of the BTK […] binding affinity are shown in Table 1 below. • IC50 BTK […]: […] wt-REC-1 mantle cell lymphoma cells were purchased from American Type Culture Collection via Synthego Corporation (cat. no. CRL-3004, ATCC). […] Luminescence was recorded on an Envision multimode reader. The cell signal at the start of incubation was recorded separately in order to distinguish between cell population growth and cell death. In addition, maximum growth was determined by incubation of a duplicate without compound in the presence of 0.3% DMSO. Percentage growth was used as the main y-axis signal. IC50s were fitted by non-linear regression using IDBS XLfitTM5 using a 4-parameter logistic curve, yielding a maximum signal, minimum signal, hill-parameter and IC50. Results of the wt-REC-1 proliferation are shown in Table 1 below. • IC50 wt-REC-1: […]

[2] = target: full-length wt-BTK enzyme (Homo sapiens (Human), UniProt Q06187); test: Biochemical kinase assay wt-BTK (IMAP)
Procedure: Biochemical kinase assay wt-BTK To determine the inhibitory activity of compounds on wt-BTK enzyme activity, the IMAP® assay (Molecular Devices) was used. […] After pre-incubation of 1 hour in the dark at room temperature, fluorescein-labeled MBP-derived substrate peptide (Molecular Devices, cat. no. RP 7123) was added, followed by ATP to start the reaction. Final enzyme concentration was 1.2 nM, final substrate concentration 50 nM, and final ATP concentration was 4 μM. The reaction was allowed to proceed for 2 hours at room temperature in the dark. The reaction was stopped by quenching with IMAP progressive binding solution according to the protocol of the manufacturer (Molecular Devices). Fluorescein polarization was measured on an Envision multimode reader (Perkin Elmer, Waltham, MA, U.S.A.). […] Results of the wt-BTK binding affinity are shown in Table 1 below. • IC50 wt-BTK: […]

[3] = target: full-length BTK C481S enzyme (Homo sapiens (Human), UniProt Q06187, C481S); test: Biochemical kinase assay BTK C481S (IMAP)
Procedure: Biochemical kinase assay BTK […] To determine the inhibitory activity of compounds on BTK C481S enzyme activity, the IMAP® assay (Molecular Devices) was used. […] After pre-incubation of 1 hour in the dark at room temperature, fluorescein-labeled MBP-derived substrate peptide (Molecular Devices, cat. no. RP 7123) was added, followed by ATP to start the reaction. Final enzyme concentration was 1.2 nM final substrate concentration 50 nM, and final ATP concentration was 7 μM. The reaction was allowed to proceed for 2 hours at room temperature in the dark. The reaction was stopped by quenching with IMAP progressive binding solution according to the protocol of the manufacturer (Molecular Devices). Fluorescein polarization was measured on an Envision multimode reader (Perkin Elmer, Waltham, MA, U.S.A.). IC50 were calculated using XLfitTM5 software (ID Business Solutions, Ltd., Surrey, U.K.). Results of the BTK […] binding affinity are shown in Table 1 below. • IC50 BTK […]: […]

REC-1 T474I cell lines = test: Cell proliferation assay REC-1 BTK T474I knock-in cells (ATPlite, 72 hours); assay type: cell-based; details: Homo sapiens, Rec1; 72 hours; read-out: IC50 REC-1 T474I
Procedure: Cell proliferation assay Generation of BTK […] knock-in cell lines wt-REC-1 cell lines expressing mutant BTK were created at Synthego Corporation. Cell lines expressing BTK […] was generated via CRISPR/Cas9. Monoclonal REC-1 […] cell lines were obtained by single cell cloning. The mutation status of all cell lines was confirmed via sequencing. […] Luminescence was recorded on an Envision multimode reader. The cell signal at the start of incubation was recorded separately in order to distinguish between cell population growth and cell death. In addition, maximum growth was determined by incubation of a duplicate without compound in the presence of 0.3% DMSO. Percentage growth was used as the main y-axis signal.

Chain of full-length wt-BTK enzyme (Q06187 whole entry): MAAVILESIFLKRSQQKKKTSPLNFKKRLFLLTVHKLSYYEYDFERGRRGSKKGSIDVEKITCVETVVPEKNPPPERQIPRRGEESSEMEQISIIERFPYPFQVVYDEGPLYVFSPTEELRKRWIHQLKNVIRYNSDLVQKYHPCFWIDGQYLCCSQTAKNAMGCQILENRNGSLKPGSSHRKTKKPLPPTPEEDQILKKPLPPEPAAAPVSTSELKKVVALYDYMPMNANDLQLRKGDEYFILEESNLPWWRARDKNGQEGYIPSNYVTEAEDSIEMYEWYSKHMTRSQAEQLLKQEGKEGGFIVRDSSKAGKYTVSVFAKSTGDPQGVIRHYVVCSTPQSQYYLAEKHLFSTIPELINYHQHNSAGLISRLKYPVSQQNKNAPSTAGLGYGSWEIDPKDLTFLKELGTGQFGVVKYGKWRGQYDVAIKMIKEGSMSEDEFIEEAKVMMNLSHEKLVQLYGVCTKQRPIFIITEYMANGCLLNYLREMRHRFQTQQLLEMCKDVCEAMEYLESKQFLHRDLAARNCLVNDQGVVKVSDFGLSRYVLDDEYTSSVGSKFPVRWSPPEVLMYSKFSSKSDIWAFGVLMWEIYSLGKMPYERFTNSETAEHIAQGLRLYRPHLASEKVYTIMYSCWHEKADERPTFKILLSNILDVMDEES
Chain of full-length BTK C481S enzyme (Q06187 whole entry C481S): as the sequence (Q06187 whole entry) above, with C481S counted along it

Row | Structure (SMILES) | IC50 [1] [nM] | IC50 [2] [nM] | IC50 [3] [nM] | IC50 (REC-1 T474I cell lines) [nM]
1 | C[C@@H]1CCn2nc(-c3ccc(C(=O)Nc4cc(C(F)(F)F)ccn4)cc3)c3c(N)ncc(c32)CC=CCCCCCC(=O)N1 [Example 111] | 1000 to 10000 | 5 to 50 | 5 to 50 | 500 to 10000
2 | Nc1ncc2c3c1c(-c1ccc(C(=O)Nc4cc(C(F)(F)F)ccn4)cc1)nn3[C@@H]1CCC[C@H](C1)NC(=O)CCNCCCC2 [Example 112] | 100 to 1000 | < 5 | < 5 | 100 to 500
3 | C[C@@H]1CCn2nc(-c3ccc(C(=O)Nc4cc(C(F)(F)F)ccn4)cc3)c3c(N)ncc(c32)CCCO[C@H](C)C(=O)N1 [Example 113] | 1000 to 10000 | 5 to 50 | 5 to 50 | 500 to 10000
4 | Nc1ncc2c3c1c(-c1ccc(C(=O)Nc4cc(C(F)(F)F)ccn4)cc1)nn3[C@@H]1CCC[C@H](C1)C(=O)NCCCCC2 [Example 116] | 1000 to 10000 | 50 to 500 | 50 to 500 | 500 to 10000
5 | Nc1ncc2c3c1c(-c1ccc(C(=O)Nc4cc(C(F)(F)F)ccn4)cc1)nn3[C@@H]1CCC[C@H](C1)C(=O)NCCCCCC2 [Example 117] | 100 to 1000 | 5 to 50 | < 5 | 500 to 10000
6 | Nc1ncc2c3c1c(-c1ccc(C(=O)Nc4cc(C(F)(F)F)ccn4)cc1)nn3[C@@H]1CCC[C@H](C1)C(=O)NCCCCCCCCC2 [Example 120] | 100 to 1000 | 5 to 50 | 5 to 50 | 500 to 10000
7 | C[C@@H]1CCn2nc(-c3ccc(C(=O)Nc4cc(C(F)(F)F)ccn4)cc3)c3c(N)ncc(c32)CCCCCCC(=O)N1 [Example 121] | 100 to 1000 | 5 to 50 | < 5 | 500 to 10000
8 | C[C@@H]1CCn2nc(-c3ccc(C(=O)Nc4cc(C(F)(F)F)ccn4)cc3)c3c(N)ncc(c32)CCCOCC(=O)N1 [Example 122] | 100 to 1000 | 5 to 50 | 5 to 50 | 500 to 10000
9 | Nc1ncc2c3c1c(-c1ccc(C(=O)Nc4ccccn4)cc1)nn3[C@@H]1CCC[C@H](C1)NC(=O)CCCCC2 [Example 124] | 100 to 1000 | 50 to 500 | 50 to 500 | 500 to 10000
10 | Nc1ncc2c3c1c(-c1ccc(C(=O)Nc4ccccn4)cc1)nn3[C@@H]1CCC[C@H](C1)NC(=O)CCCCCC2 [Example 125] | 100 to 1000 | 5 to 50 | 5 to 50 | 500 to 10000
11 | Nc1ncc2c3c1c(-c1ccc(C(=O)Nc4ccccn4)cc1)nn3[C@@H]1CCC[C@H](C1)NC(=O)CCCCCCC2 [Example 126] | < 100 | < 5 | < 5 | 100 to 500
12 | Nc1ncc2c3c1c(-c1ccc(C(=O)Nc4cc(C(F)(F)F)ccn4)cc1)nn3[C@@H]1CCC[C@H](C1)NC(=O)CNCCCC2 [Example 127] | 100 to 1000 | < 5 | < 5 | 500 to 10000
13 | Nc1ncc2n3c(nc(-c4ccc(C(=O)Nc5cc(C(F)(F)F)ccn5)cc4)c13)[C@@H]1CCC[C@H](C1)NC(=O)CCC/C=C/C2 [Example 133a] | 100 to 1000 | 5 to 50 | 5 to 50 | 500 to 10000
